From US20080095868A1, “Use of fermented wheat-germ in the feeding and veterinary practice” (priority 2002, published 2008)

Tested on: M. gallisepticum No 1226
Assay: effect against Mycoplasma gallisepticum infection in chickens (Example 6)
Type: in vivo, Mycoplasma gallisepticum; Arbor Acress chickens
Experimental: The investigations were performed with Arbor Acress chickens of meat type free of M. synoviae infection. The freedom from Mycoplasma synoviae of the animals was verified with systematic serological screening examination in an agglutination test by the help of M. gallisepticum and M. synoviae antigens (Intervet International B.V.M.; Boxmeer, The Netherlands). Furthermore, the animals were tested in an ELISA-test based on monoclonal antibodies and with the use of MYGA test-kit (Diagnosztikum Kft; Budapest, Hungary) and MYSA kit (Svanova, Uppsala, Sweden) [Czifra, Gy. et al.: Avian Dis. 37, 680-688 (1993)]. The serological examinations gave negative results. Furthermore, from the same hatching from which the experimental animals derived, isolation of Mycoplasma was tried from the nasal cavity, trachea and air pocket of 20 1 day old chicks using medium B [Erno H., and Stipkovits, L.: Acta Vet. Scand. 14, 436-449 (1973)] and Frey's media [Frey, M. C. et al.: Am. J. Vet. Res. 29, 2164-2171 (1968)]. This cultivation closed with a negative result, too.
For the infection of the experimental animals M. gallisepticum N^o 1226 was employed which had been previously amplified in medium B for 24 hours. The germ content was 9.5×10^8 pfu/ml (pfu=plaque forming unit).
The experimental groups were treated and infected as follows:
Group 1. was located in a 200 litre box which can be fastened down hermetically, into which 10 ml sterile medium B was sprayed, then the animals were kept in this box for 20 minutes.
Group 3. was infected in identical manner as Group 2., then after location in a third room the animals were fed with a chick breeding nutriment containing VET-HBM in 3 g/kg concentration in the course of the experiment.
Group 4. was infected in identical manner as Group 2., then after location in a fourth room the animals were fed with a nutriment containing 200 mg/kg tiamutin (Biochemie GmbH, Kundl, Austria) in the course of the experiment.
To the judgment of the effectiveness of the treatment the following parameters were investigated: clinical symptoms, changes in body weight, feed conversion ratio; in addition to them pathological, histological and serological examinations as well as Mycoplasma re-isolation were performed. In the course of their evaluation the following result were obtained.
At the end of the experiment all the animals were examined by pathological dissection to air-pocket- and peritoneum inflammation characteristic of the M. gallisepticum infection.
The blood plasma of all the chickens was investigated on slide in a M. gallisepticum agglutination test. The severity of the reaction was scored, and the number of respondent animals and the sum of the scores were compared in a Chie square test. The Group 1. remained negative till the end of the experiment. […] (75 scores).
The re-isolation of the infectious Mycoplasma strain was performed as follows. Following of the infection after 1 hour 5-5 animals were killed. 1-1 cm long pieces of trachea were placed into 2 ml liquid medium B, and after 3 minutes of shaking germ counting were performed in the medium. At the end of the experiment re-isolation of the strain used for infection was attempted from the respiratory organs (trachea, lung, air-pocket) and other organs (brain, liver, spleen, kidney, heart) of all the chickens in that manner that samples were carried from every abovementioned organ to solid medium B by the help of a tampon. The agar slants were cultivated for 10 days then they were evaluated. A portion of the isolates was identified with an epifluorescent method using a specific immune serum.

C=C[C@]1(C)C[C@@H](OC(=O)CSCCN(CC)CC)[C@]2(C)[C@H](C)CC[C@]3(CCC(=O)[C@H]32)[C@@H](C)[C@@H]1O [tiamutin]
number of animals exhibiting serological response, M. gallisepticum agglutination test (30 animals per group, non-treated Group 2: 25, VET-HBM 3 g/kg, tiamutin 200 mg/kg): 8 | Mycoplasma re-isolation, number of occasions (end of the experiment, Group 2: 64 instances, VET-HBM 3 g/kg, tiamutin 200 mg/kg): 3 | clinical symptoms (infected chickens, Group 3 VET-HBM 3 g/kg, Group 4 tiamutin 200 mg/kg in nutriment): no any clinical symptoms | gain in body weight (infected chickens, VET-HBM 3 g/kg, tiamutin 200 mg/kg in nutriment): of same degree as in the control group | feed conversion ratio (infected chickens, VET-HBM 3 g/kg, tiamutin 200 mg/kg, versus control group): remained at the same level | sum of the scores of the serological reaction (non-treated Group 2: 75 scores, VET-HBM 3 g/kg, tiamutin 200 mg/kg): 11 | pathological alterations (air-pocket- and peritoneum inflammation) (versus infected non-treated Group 2, VET-HBM 3 g/kg, tiamutin 200 mg/kg): developed significantly more scarcely | histological parameters (lymphohystiocytic bronchitis, lobular interstitial pneumoniae) (versus non-infected Group 1, VET-HBM 3 g/kg, tiamutin 200 mg/kg): remained on the same level as in the Group 1.
